From patent US7455654B2, “Method and apparatus for reducing the incidence of tobacco use” (Alza Corporation, priority 2003, dated 2008)
Where two headings read alike, the source gives them in different places.

Columns and labels:
[1] = 0.2 wt. % Tween 20
Experimental: A 30 wt. % nicotine HCl solution is prepared in water. To that solution is added 0.1 wt. % hydroxyethyl cellulose and 0.2 wt. % of the surfactant Tween 20. The coating solution is then applied to the microprojections using the coating methods described in U.S. Publication No. 2002/0132054.
(§1) An aqueous solution consisting of 5 wt. % nicotine base, 5 wt. % hydroxypropyl methylcellulose (HPMC, Methocel E5 premium LV EP JP, Dow Chemical Company, Midland Mich.) and 0.2 wt. % Tween 20 is prepared. The coating solution is then applied to the microprojections using the coating methods described in U.S. Publication No. 2002/0132054.

[2] = 2 cm^2 device coated with ca. 300 micrograms nicotine HCl, applied in humans with applicator
[3] = 2 cm^2 device coated with ca. 400 micrograms nicotine base; essentially immediate delivery on application to the skin
Experimental: as §1

[4] = Experimental: An aqueous solution containing 40 wt. % nicotine hydrogen tartrate was prepared. Sufficient fluorescein was added to the solution to generate a 0.001 M concentration. This agent was used to assess the quality of the coating after drying.
A strip of titanium foil was prepared by washing the surface with acetone and drying. Five microliters of the coating solution (or formulation) was applied and dried for four hours at room temperature.

CN1CCCC1c1cccnc1.Cl (stereo not drawn) [nicotine HCl]
coating distribution across the projections ([1]; 30 wt. % nicotine HCl in water, 0.1 wt. % hydroxyethyl cellulose): well distributed across the projections
delivery of the nicotine contained on the projections [2]: more than 70%

CN1CCC[C@H]1c1cccnc1 [nicotine base]
coating distribution across the projections ([1]; aqueous 5 wt. % nicotine base, 5 wt. % HPMC): well distributed across the projections
amount of nicotine base delivered to the user [3]: 300 micrograms

CN1CCCC1c1cccnc1.O=C(O)C(O)C(O)C(=O)O (stereo not drawn) [nicotine hydrogen tartrate]
quality of the coating ([4]; aqueous 40 wt. % nicotine hydrogen tartrate with 0.001 M fluorescein, 5 microliters on titanium foil, dried four hours at room temperature, no wetting agent): very poor
quality of the coating ([4]; same coating solution with 0.1 wt. % hydroxyethyl cellulose added): noticeably improved
